{"source": "paper PMC12505902", "about": "“Inhibitors of trehalose-6-phosphate synthase activity in fungal pathogens compromise thermal tolerance pathways” (mBio, 2025)", "key": {"6xHis-CnTps1 [1]": {"target": "T1, 6xHis-CnTps1 (Cryptococcus neoformans var. grubii, UniProt J9VJZ1)", "T1 sequence (J9VJZ1 entry or part of it)": "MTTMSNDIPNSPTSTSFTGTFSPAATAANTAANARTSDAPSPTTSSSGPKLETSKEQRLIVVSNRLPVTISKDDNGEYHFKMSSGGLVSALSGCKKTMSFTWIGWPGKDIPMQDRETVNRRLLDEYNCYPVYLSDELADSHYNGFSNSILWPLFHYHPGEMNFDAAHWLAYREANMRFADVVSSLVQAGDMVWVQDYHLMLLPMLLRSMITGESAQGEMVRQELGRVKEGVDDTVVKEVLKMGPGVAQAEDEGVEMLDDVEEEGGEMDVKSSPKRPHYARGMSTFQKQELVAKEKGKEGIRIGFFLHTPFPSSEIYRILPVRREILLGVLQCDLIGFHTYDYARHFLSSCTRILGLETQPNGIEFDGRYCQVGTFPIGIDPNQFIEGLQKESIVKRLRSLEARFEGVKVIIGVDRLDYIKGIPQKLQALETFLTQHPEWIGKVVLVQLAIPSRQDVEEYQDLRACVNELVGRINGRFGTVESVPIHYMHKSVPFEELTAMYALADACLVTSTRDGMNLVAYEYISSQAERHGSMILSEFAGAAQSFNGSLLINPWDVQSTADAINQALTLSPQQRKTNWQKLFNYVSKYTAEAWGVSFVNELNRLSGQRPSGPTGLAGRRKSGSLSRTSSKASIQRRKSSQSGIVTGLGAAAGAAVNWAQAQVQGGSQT", "assay": "Spectrophotometric-coupled Tps1 enzyme activity assay", "format": "biochemical, C. neoformans", "conditions": "1 mM 4456dh", "method": "(§1) Fig 2 4456dh binds Tps1 and inhibits Tps1 activity. (A) Structure of 4456dh. (B and C) Glo-melt thermal shift assays reveal 4456dh destabilizes 6xHis-CaTps1 (B) and 6xHis-CnTps1 (C). The first derivative of the raw data was used to determine the melting temperature of 1 µM 6xHis-CaTps1 (B) and 1 µM 6xHis-CnTps1 (C) treated without (black) or with 2 mM 4456dh (red). […] The resulting dose-response curves were fitted to a one-site binding model to extract Kd values; the SD was calculated using the Kd values from each independent experiment (n = 3). (F) Tps1 enzyme activity assay with 5 µM 6xHis-CaTps1 (F) and 6xHis-CnTps1 (G) ±1 mM 4456dh. Error bars represent SE. […]\n(§2) The ability of 4456dh to inhibit the activity of CaTps1 was tested using a spectrophotometric-coupled Tps1 enzyme assay, in which recombinant 6xHis-CaTps1 was incubated with 1 mM 4456dh at 4°C for 16 hours. […] Similarly, the effect of 1 mM 4456dh on 6xHis-CnTps1 activity was determined. […]\n(§3) 82 determined by SDS-PAGE analysis, were pooled and concentrated to 1 mg/mL for downstream […]\n(§4) 93 The data were acquired with MO.Control 1.5.3 (NanoTemper Technologies GmbH). Recorded\n(§5) 94 data were analyzed with MO.Affinity Analysis 2.2.7 (NanoTemper Technologies GmbH). […]\n(§6) 100 2X Glo-melt dye. Thermal denaturation was measured using an RT-PCR thermocycler (BioRad) […]\n(§7) 102 determined by identifying the inflection point of the derivative data. […]"}, "6xHis-CnTps1 [2]": {"target": "T1, 6xHis-CnTps1", "assay": "Glo-melt thermal shift assay", "format": "binding", "conditions": "1 µM protein, 2 mM 4456dh (Fig 2 legend), incubated overnight at 4°C", "method": "(§8) Fig 2 4456dh binds Tps1 and inhibits Tps1 activity. (A) Structure of 4456dh. (B and C) Glo-melt thermal shift assays reveal 4456dh destabilizes 6xHis-CaTps1 (B) and 6xHis-CnTps1 (C). The first derivative of the raw data was used to determine the melting temperature of 1 µM 6xHis-CaTps1 (B) and 1 µM 6xHis-CnTps1 (C) treated without (black) or with 2 mM 4456dh (red). […] The resulting dose-response curves were fitted to a one-site binding model to extract Kd values; the SD was calculated using the Kd values from each independent experiment (n = 3). (F) Tps1 enzyme activity assay with 5 µM 6xHis-CaTps1 (F) and 6xHis-CnTps1 (G) ±1 mM 4456dh. Error bars represent SE. Comparison to control, untreated 6xHis-CaTps1, was performed using Student’s t-test; **P < 0.01 and ***P < 0.001.\n(§9) Thermal shift assays were completed to determine if 4456dh binds Tps1. […]\nas §3, §4, §5, §6, §7\n(§10) 104 The catalytic activity of C. albicans Tps1 and C. neoformans Tps1 was measured via a continuous […]"}, "6xHis-CaTps1 [3]": {"target": "T2, 6xHis-CaTps1 (Candida albicans, UniProt Q92410)", "T2 construct": "Briefly, the full-length; thrombin cleavage site (pET-28a linker) (N); made in house; host or cells: E. coli BL21(DE3)pLysS", "T2 sequence (Q92410 1-478)": "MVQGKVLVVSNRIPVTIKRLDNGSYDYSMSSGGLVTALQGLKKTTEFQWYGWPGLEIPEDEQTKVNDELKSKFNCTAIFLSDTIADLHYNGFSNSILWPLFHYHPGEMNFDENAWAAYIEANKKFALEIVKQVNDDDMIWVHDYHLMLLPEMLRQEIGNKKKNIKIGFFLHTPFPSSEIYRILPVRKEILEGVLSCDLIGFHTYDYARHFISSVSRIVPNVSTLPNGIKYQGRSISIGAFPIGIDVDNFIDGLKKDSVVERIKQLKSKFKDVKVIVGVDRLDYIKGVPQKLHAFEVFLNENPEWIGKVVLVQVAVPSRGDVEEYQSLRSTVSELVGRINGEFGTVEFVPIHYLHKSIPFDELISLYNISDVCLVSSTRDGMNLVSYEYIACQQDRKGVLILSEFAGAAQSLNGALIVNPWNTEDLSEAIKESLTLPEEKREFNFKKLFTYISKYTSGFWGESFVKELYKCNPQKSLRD", "assay": "Glo-melt thermal shift assay", "format": "binding", "conditions": "1 µM protein, 2 mM 4456dh (Fig 2 legend), incubated overnight at 4°C", "method": "as §8, §9, §3, §4, §5, §6, §7, §10"}, "6xHis-CaTps1 [4]": {"target": "T2, 6xHis-CaTps1", "assay": "Spectrophotometric-coupled Tps1 enzyme activity assay", "format": "biochemical, C. albicans", "conditions": "1 mM 4456dh, 4°C for 16 hours", "method": "as §1, §2, §3, §4, §5, §6, §7"}}, "data": [{"smiles": "Cn1cc(-c2csc(NC(=O)Cc3ccccn3)n2)cn1", "note": "[Compound 4456dh]", "values": [{"measurement": "inhibition at 1000 µM", "setting": "6xHis-CnTps1 [1]", "value": "~30", "unit": "%"}, {"measurement": "effect on melting temperature", "setting": "6xHis-CnTps1 [2]", "value": "decreased the melting temperature"}, {"measurement": "effect on melting temperature", "setting": "6xHis-CaTps1 [3]", "value": "decreased the melting temperature"}, {"measurement": "reduction of 6xHis-CaTps1 activity", "setting": "6xHis-CaTps1 [4]", "value": "approximately 30%"}]}]}
